Consider five compounds from EPA's ToxRefDB 2.

The structures appear in SMILES notation. Some results are limits rather than exact numbers.

Series [1] concerns primate. Particulars: Sub-acute repeat dose toxicity, Oral, Gavage/Intubation, dose end: 23 day, group: systemic.
The subject of series [2] is primate. The conditions noted are these: Sub-acute repeat dose toxicity; Oral; Gavage/Intubation; dose end: 34 day; group: systemic; systemic / pathology microscopic / intestine small / erosion + systemic / pathology microscopic / intestine small / hemorrhage + systemic / ….
Series [3] concerns rat. Particulars: Sub-acute repeat dose toxicity, sprague dawley, Oral, Gavage/Intubation, dose end: 14 day, group: systemic.
The test system of series [4] is rat. The conditions noted are these: Sub-acute repeat dose toxicity, sprague dawley, Oral, Gavage/Intubation, dose end: 29 day, group: systemic.
The test system of series [5] is rat. Particulars: Carcinogenicity, fischer, Oral, Feed, dose end: 2 year, group: systemic.
Series [6] deals with rat. Particulars: Carcinogenicity, fischer, Oral, Gavage/Intubation, dose end: 105 week, group: systemic.
For series [7], the system named is rat. Particulars: Prenatal developmental toxicity study, sprague dawley, Oral, Gavage/Intubation, dose end: 19 GD.
The test system of series [8] is rat. Particulars: Multigenerational reproductive toxicity study, sprague dawley, Oral, Gavage/Intubation, dose end: 2 generation.
For series [9], the system named is mouse. Particulars: Subchronic oral toxicity in rodents, b6c3f1, Gavage/Intubation, dose end: 14 week, group: systemic.
Series [10] relates to mouse. The conditions noted are these: Carcinogenicity; b6c3f1; Oral; Gavage/Intubation; dose end: 105 week; group: systemic; systemic / pathology microscopic / nose / dilatation + systemic / pathology microscopic / nose / hyperplasia + systemic / pathology ….
The test system of series [11] is rat. Particulars: Subchronic oral toxicity in rodents, fischer, Gavage/Intubation, dose end: 14 week, group: systemic.
The test system of series [12] is rat. Particulars: Fertility (Segment I), wistar, Oral, Gavage/Intubation, dose end: 7 GD.
Series [13] deals with rabbit. The conditions noted are these: Prenatal developmental toxicity study, himalayan, Oral, Gavage/Intubation, dose end: 18 GD.
Series [14] relates to rabbit. Particulars: Prenatal developmental toxicity study, himalayan, Oral, Gavage/Intubation, dose end: 18 GD. This is another data set of the same source.
Series [15] relates to rat. Particulars: Sub-acute repeat dose toxicity; long evans; Oral; Gavage/Intubation; dose end: 4 week; group: systemic; systemic / in life observation / body weight / body weight gain + systemic / in life observation / clinical signs / drooping eyelids (ptosis….
The test system of series [16] is rabbit. Particulars: Prenatal developmental toxicity study, himalayan, Injection, Intravenous, dose end: 18 GD, group: maternal.
For series [17], the system named is rat. The conditions noted are these: Sub-acute repeat dose toxicity, sprague dawley, Oral, Gavage/Intubation, dose end: 4 week, group: systemic.
For series [18], the system named is rat. The conditions noted are these: Combined chronic toxicity/carcinogenicity; fischer; Oral; Feed; dose end: 365 day; group: systemic; systemic / in life observation / body weight / body weight.
Series [19] concerns mouse. The conditions noted are these: Combined chronic toxicity/carcinogenicity; other; Oral; Feed; dose end: 365 day; group: systemic; systemic / pathology gross / full gross necropsy / lymphoma malignant.
Where [20] appears, read: systemic / clinical chemistry / alanine aminotransferase (alt/sgpt) / alanine aminotransferase (alt/sgpt) + systemic / clinical chemistry / ….
[21] abbreviates: systemic / in life observation / clinical signs / emesis.
Setting [22] is: systemic / hematology / platelet / platelet + systemic / in life observation / body weight / body weight gain + systemic / in life ….
Where [23] appears, read: systemic / in life observation / body weight / body weight gain.
Setting [24] is: systemic / clinical chemistry / [other] / [other] + systemic / clinical chemistry / protein / protein + systemic / hematology / erythrocyte….
The mark [25] stands for this setting: systemic / in life observation / body weight / body weight + systemic / pathology microscopic / urinary bladder / hyperplasia.
Where [26] appears, read: systemic / in life observation / body weight / body weight + systemic / pathology microscopic / urinary bladder / hyperplasia + systemic / ….
Where [27] appears, read: systemic / pathology microscopic / nose / atrophy + systemic / pathology microscopic / nose / metaplasia.
[28] abbreviates: group: developmental, developmental / developmental malformation / bone / unossified + systemic / in life observation / body weight / fetal weight.
Setting [29] is: group: maternal, systemic / in life observation / body weight / body weight + systemic / in life observation / body weight / body weight gain + systemic / in….
[30] abbreviates: group: offspring, developmental / developmental landmark / nipple development / nipple development + systemic / in life observation / body weight / offspring….
Where [31] appears, read: group: offspring, systemic / pathology microscopic / stomach / hyperkeratosis + systemic / pathology microscopic / stomach / hyperplasia.
[32] abbreviates: group: parental, systemic / in life observation / body weight / body weight + systemic / in life observation / body weight / dam weight + systemic / in life ….
The mark [33] stands for this setting: group: parental, systemic / organ weight / liver / relative to body weight + systemic / pathology microscopic / stomach / hyperkeratosis + systemic / ….
The mark [34] stands for this setting: group: reproductive, reproductive / offspring survival early / live fetuses / live fetuses.
Where [35] appears, read: systemic / organ weight / liver / relative to body weight.
[36] abbreviates: systemic / clinical chemistry / cytochrome p450, nos / cytochrome p450, nos.
Setting [37] is: systemic / organ weight / liver / absolute + systemic / organ weight / liver / relative to body weight + systemic / pathology microscopic / ….
Where [38] appears, read: group: maternal, reproductive / reproductive performance / implantations / implantations + reproductive / reproductive performance / preimplantation loss / ….
Setting [39] is: group: parental, systemic / in life observation / clinical signs / salivation + systemic / in life observation / clinical signs / tremors + systemic / in ….
Where [40] appears, read: group: developmental, developmental / developmental malformation / bone / incomplete ossification + developmental / developmental malformation / bone / short + ….
[41] abbreviates: group: maternal, systemic / in life observation / clinical signs / motor activity + systemic / in life observation / mortality / mortality.
Where [42] appears, read: group: developmental, developmental / developmental malformation / paw / digit / [other].
[43] abbreviates: group: maternal, systemic / in life observation / body weight / body weight gain + systemic / in life observation / clinical signs / [other] + systemic / in ….
[44] abbreviates: group: maternal, systemic / in life observation / clinical signs / ataxia + systemic / in life observation / clinical signs / motor activity + systemic / in ….
The mark [45] stands for this setting: systemic / in life observation / body weight / body weight gain + systemic / in life observation / food consumption / food consumption + ….
The mark [46] stands for this setting: systemic / clinical chemistry / adrenocorticotropic hormone (acth) / adrenocorticotropic hormone (acth).
Setting [47] is: systemic / clinical chemistry / adrenocorticotropic hormone (acth) / adrenocorticotropic hormone (acth) + systemic / clinical chemistry / ….

Regarding `NC(=O)n1c(O)c(C(=O)c2ccc(Cl)s2)c2cc(Cl)ccc21`, the LOAEL (usually the lowest tested level that showed an adverse finding) with primate [1] (setting [20]) is above 30 mg/kg/day; in the series on primate [2] it was above 10 mg/kg/day; with rat [3] (setting [22]), above 100 mg/kg/day; in the series with rat [4] (setting [24]), above 30 mg/kg/day. Moreover, the no observed adverse effect level (NOAEL) – broadly, the highest tested level that showed no adverse finding – was at least 30 mg/kg/day in the series with primate [1] (setting [20]), at least 10 mg/kg/day with primate [2], at least 100 mg/kg/day in the series on rat [3] (setting [22]) and at least 30 mg/kg/day with rat [4] (setting [24]). Moreover, the LEL in the series with primate [1] (setting [21]) stood at 1 mg/kg/day; in the series with primate [2], 3 mg/kg/day; in the series with rat [3] (setting [23]), 10 mg/kg/day; with rat [4] (systemic / clinical chemistry / protein / protein + systemic / hematology / erythrocyte (rbc) count differential / erythrocyte (rbc) + …), 10 mg/kg/day. The NEL is below 1 mg/kg/day with primate [1] (setting [21]), 1 mg/kg/day in the series with primate [2], below 10 mg/kg/day with rat [3] (setting [23]) and 3 mg/kg/day in the series with rat [4] (setting [24]).
As for `Cc1ccccc1N.Cl` [2-Methylaniline hydrochloride], in the series on rat [5] (setting [25]), the LOAEL was determined as 300 mg/kg/day and the no-observed-adverse-effect level (NOAEL) was below 300 mg/kg/day. In the series on rat [5] (setting [26]), the LEL is 300 mg/kg/day and the NEL is below 300 mg/kg/day.
Consider `C/C=C/c1ccc(O)c(OC)c1` [Isoeugenol], for which the LEL with rat [6] (setting [27]) was found to be 75 mg/kg/day; in the series on rat [7] (setting [28]), 1000 mg/kg/day; in the series with rat [7] (setting [29]), 250 mg/kg/day; with rat [8] (setting [31]), 70 mg/kg/day; in the series with rat [8] (setting [33]), 70 mg/kg/day; in the series on rat [8] (setting [34]) it was 700 mg/kg/day. The results for the LEL in the series with mouse [9] (setting [35]), in the series on mouse [10] and with rat [11] (setting [36]) were 37.5 mg/kg/day, 75 mg/kg/day and 75 mg/kg/day, respectively. Further, the LOAEL in the series with rat [6] (setting [27]) was 150 mg/kg/day; in the series on rat [7] (setting [28]), 1000 mg/kg/day; with rat [7] (setting [29]), 250 mg/kg/day; with rat [8] (setting [30]) it was above 700 mg/kg/day; with rat [8] (setting [32]), above 700 mg/kg/day; with rat [8] (setting [34]), above 700 mg/kg/day. Also, the LOAEL amounted to 600 mg/kg/day with mouse [9] (systemic / pathology microscopic / nose / atrophy + systemic / in life observation / body weight / body weight + systemic / in life …), 75 mg/kg/day in the series on mouse [10] and 600 mg/kg/day in the series on rat [11] (setting [37]). Besides, the NEL with rat [6] (setting [27]) is below 75 mg/kg/day; in the series with rat [7] (setting [28]), 500 mg/kg/day; in the series with rat [7] (setting [29]) it was below 250 mg/kg/day; with rat [8] (setting [31]), below 70 mg/kg/day; with rat [8] (setting [33]), below 70 mg/kg/day; in the series on rat [8] (setting [34]) it was 230 mg/kg/day. The NEL was below 37.5 mg/kg/day in the series with mouse [9] (setting [35]), below 75 mg/kg/day in the series on mouse [10] and 37.5 mg/kg/day in the series on rat [11] (setting [36]). The no-observed-adverse-effect level (NOAEL) in the series with rat [6] (systemic / pathology microscopic / nose / atrophy + systemic / pathology microscopic / nose / metaplasia + systemic / pathology microscopic…) is 75 mg/kg/day; with rat [7] (setting [28]) it was 500 mg/kg/day; with rat [7] (setting [29]), below 250 mg/kg/day; with rat [8] (setting [30]), at least 700 mg/kg/day; in the series with rat [8] (setting [32]) it was at least 700 mg/kg/day; in the series on rat [8] (setting [34]) it was at least 700 mg/kg/day. For the same compound, the no observed adverse effect level (NOAEL) in the series on mouse [9] (systemic / pathology microscopic / nose / atrophy + systemic / organ weight / lung / absolute) is 300 mg/kg/day; with mouse [10] it was below 75 mg/kg/day; with rat [11] (setting [37]), 300 mg/kg/day.
On to `COc1cccc([C@H](O)C2CCN(CCc3ccc(F)cc3)CC2)c1OC` [Volinanserin], for which the LEL in the series on rat [12] (setting [38]) came to 200 mg/kg/day; with rabbit [13] (setting [40]), 40 mg/kg/day; in the series on rabbit [13] (setting [41]), 40 mg/kg/day; in the series on rabbit [14] (setting [42]) it was 50 mg/kg/day; in the series on rabbit [14] (setting [44]) it was 50 mg/kg/day; in the series on rat [15], 150 mg/kg/day. Besides, the figures for the LEL with rabbit [16] (systemic / in life observation / body weight / body weight gain + systemic / in life observation / food consumption / food consumption) and with rat [17] (setting [46]) were 3 mg/kg/day and 12.5 mg/kg/day, respectively. Moreover, the lowest-observed-adverse-effect level (LOAEL) in the series on rat [12] (setting [38]) was above 200 mg/kg/day; in the series with rabbit [13] (setting [40]), above 40 mg/kg/day; in the series on rabbit [13] (setting [41]), above 40 mg/kg/day; with rabbit [14] (setting [42]), above 100 mg/kg/day; in the series with rabbit [14] (setting [43]) it was above 100 mg/kg/day; in the series on rat [15], above 150 mg/kg/day. Further, the LOAEL in the series with rabbit [16] (setting [45]) was above 4.5 mg/kg/day; in the series on rat [17] (setting [47]), above 75 mg/kg/day. Besides, the no-observed-adverse-effect level (NOAEL) in the series with rat [12] (setting [38]) is at least 200 mg/kg/day; in the series with rat [12] (setting [39]) it was 20 mg/kg/day; with rabbit [13] (setting [40]), at least 40 mg/kg/day; with rabbit [13] (setting [41]), at least 40 mg/kg/day; with rabbit [14] (setting [42]), at least 100 mg/kg/day; in the series on rabbit [14] (setting [43]) it was at least 100 mg/kg/day. Also, the no-observed-adverse-effect level (NOAEL) in the series with rat [15] is at least 150 mg/kg/day; with rabbit [16] (setting [45]) it was at least 4.5 mg/kg/day; in the series with rat [17] (setting [47]), at least 75 mg/kg/day. For the same compound, the NEL with rat [12] (setting [39]) is 20 mg/kg/day; with rabbit [13] (setting [40]), 12.5 mg/kg/day; with rabbit [13] (setting [41]), 12.5 mg/kg/day; in the series on rabbit [14] (setting [42]), below 50 mg/kg/day; in the series on rabbit [14] (setting [44]) it was below 50 mg/kg/day; with rat [15] it was 50 mg/kg/day. The results for the NEL with rabbit [16] (setting [45]) and in the series with rat [17] (setting [46]) were 0.2 mg/kg/day and below 12.5 mg/kg/day, respectively.
As to `Cc1ccc(NC(N)=O)cc1` [p-Tolylurea], in the series with rat [18], the LEL worked out at 100 mg/kg/day, the lowest observed adverse effect level (LOAEL) is above 100 mg/kg/day, the NEL is below 100 mg/kg/day and the NOAEL was at least 100 mg/kg/day. Also, in the series on mouse [19], the LEL was found to be 300 mg/kg/day, the LOAEL was above 300 mg/kg/day, the NEL was below 300 mg/kg/day and the no-observed-adverse-effect level (NOAEL) was at least 300 mg/kg/day.
